Where a name gives a salt, the structure may show the parent alone.
Tests used:
OATP1B1 = molecular target: T1, OATP1B1 (Homo sapiens, UniProt Q9Y6L6); assay: Inhibition of transporters, OATP1B1 (HEK293 cells); type: in vitro ADME
T1 construct: expressed in transfected cells; host or cells: HEK293 cells
T1 sequence (Q9Y6L6 1-691): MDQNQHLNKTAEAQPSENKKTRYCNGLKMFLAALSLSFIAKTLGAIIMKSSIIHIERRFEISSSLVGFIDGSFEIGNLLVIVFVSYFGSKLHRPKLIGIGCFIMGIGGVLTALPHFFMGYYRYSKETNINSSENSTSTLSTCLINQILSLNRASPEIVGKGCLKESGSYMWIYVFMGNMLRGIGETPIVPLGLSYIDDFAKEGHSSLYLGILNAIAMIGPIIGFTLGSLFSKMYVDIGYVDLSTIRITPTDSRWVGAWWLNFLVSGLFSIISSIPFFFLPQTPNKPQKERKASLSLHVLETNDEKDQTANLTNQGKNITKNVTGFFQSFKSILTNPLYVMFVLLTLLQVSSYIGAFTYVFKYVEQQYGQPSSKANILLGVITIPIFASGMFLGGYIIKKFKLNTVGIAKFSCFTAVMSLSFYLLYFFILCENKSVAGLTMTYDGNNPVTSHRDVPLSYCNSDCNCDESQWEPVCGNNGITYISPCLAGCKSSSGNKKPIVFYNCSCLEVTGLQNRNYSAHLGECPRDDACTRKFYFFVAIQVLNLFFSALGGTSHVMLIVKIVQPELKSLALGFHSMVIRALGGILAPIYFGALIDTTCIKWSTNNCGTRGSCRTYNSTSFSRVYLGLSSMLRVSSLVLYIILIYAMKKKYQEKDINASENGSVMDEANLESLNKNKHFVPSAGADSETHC

[1] = system: models of painful diabetic neuropathy; assay: Models of painful diabetic neuropathy (overview); type: in vivo; conditions: upon repeated dosing
[2] = system: streptozotocin (STZ)-induced diabetic rats; assay: Mechanical thresholds in streptozotocin (STZ)-induced diabetic rats; type: in vivo, rat
Description: Experiments were conducted to determine the effect of Compound 1 in streptozotocin (STZ)-induced diabetic rats. In the first experiment, after obtaining mechanical threshold baselines, STZ (50 mg/kg IV) was administered (Day −7). Two days later, blood glucose levels were measured and animals that were hyperglycemic (>250 mg/dL) continued in the study. On Day 0 the baseline for mechanical thresholds prior to dosing with test articles was established for the rats. Compound 1 (10, 30, and 100 mg/kg PO), gabapentin (100 mg/kg PO) or vehicle was then administered daily for 5 days. On Day 0 mechanical thresholds were obtained at 1, 3, and 6 h post-dose. On Day 1 mechanical thresholds were measured immediately prior to dosing and then 3 h post-dose. The same regimen was followed on Day 3.
In a subsequent study, the same STZ paradigm was followed. However, in addition to the 100 mg/kg Compound 1 group, two additional cohorts received the Compound 1 100 mg/kg dose split into two or three doses per day with 50 mg/kg BID and 33 mg/kg TID. In addition to the gabapentin (100 mg/kg PO) group, a separate cohort received duloxetine (30 mg/kg PO). Additionally, in this study mechanical threshold testing was implemented every day immediately prior to dosing and 2 h post-dose for 7 days.

[3] = Stability of dose formulations for in vitro genetic toxicology assays; type: physicochemical; conditions: 0.001 to 50 mg/mL
Description: In addition, formulation analysis for in vitro genetic toxicology studies was performed using a validated HPLC/UV analytical method (2750-001-001 Dose Formulation Method No. 2) with linearity over a range of 0.001 to 50 mg/mL. Dose formulations for in vitro assays were stable at room temperature for up to 1 day and when stored frozen at −20° C. for up to 45 days.

[4] = system: hypersensitivity caused by an injury/insult such as an incision or irritant; assay: Hypersensitivity caused by an injury/insult (incision or irritant); conditions: in vivo
BCRP (ABCG2) = molecular target: T2, BCRP (ABCG2) (Homo sapiens, UniProt Q9UNQ0); assay: Inhibition of transporters, BCRP (MDCKII cells, prazosin); type: in vitro ADME
T2 construct: expressed in transfected cells; host or cells: MDCKII-BCRP cells (with MDCKII control cells)
T2 sequence (Q9UNQ0 1-655): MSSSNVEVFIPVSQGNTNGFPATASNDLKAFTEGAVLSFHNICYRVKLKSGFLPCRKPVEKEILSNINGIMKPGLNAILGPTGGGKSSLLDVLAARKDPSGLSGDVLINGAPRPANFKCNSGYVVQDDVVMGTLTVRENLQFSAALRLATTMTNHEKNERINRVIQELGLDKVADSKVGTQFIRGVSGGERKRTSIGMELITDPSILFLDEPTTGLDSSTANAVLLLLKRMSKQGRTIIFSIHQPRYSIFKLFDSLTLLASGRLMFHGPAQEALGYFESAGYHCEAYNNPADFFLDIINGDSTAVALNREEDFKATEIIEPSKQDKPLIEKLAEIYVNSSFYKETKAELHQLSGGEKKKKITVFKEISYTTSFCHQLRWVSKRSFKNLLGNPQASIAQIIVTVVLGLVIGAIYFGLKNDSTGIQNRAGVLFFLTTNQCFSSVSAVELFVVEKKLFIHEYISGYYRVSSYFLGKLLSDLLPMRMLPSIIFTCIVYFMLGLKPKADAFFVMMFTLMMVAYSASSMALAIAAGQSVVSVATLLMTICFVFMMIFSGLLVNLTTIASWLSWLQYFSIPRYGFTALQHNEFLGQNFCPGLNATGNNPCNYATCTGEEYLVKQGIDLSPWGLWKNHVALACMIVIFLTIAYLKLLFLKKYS

[5] = Stability of dose formulations for GLP toxicology studies (0.5% HPMC); type: physicochemical; conditions: 1.0 to 200 mg/mL in 0.5% HPMC
Description: Formulation analysis and bioanalytical methods were validated for all GLP studies. Formulation of Compound 1 in water was validated over a range of 1 to 200 mg/mL using HPLC and in 0.5% hydroxypropyl methylcellulose (HPMC) over the same range.
Dose formulation analysis for all good laboratory practice (GLP) general toxicology studies was performed using a validated high-performance liquid chromatography (HPLC)/ultraviolet (UV) analytical method (2750-001-001 Dose Formulation Method 1). The vehicle used in the in vivo toxicology studies was 0.5% HPMC). The analytical method utilized HPLC with monitoring at 227 nm with an isocratic mobile phase of methanol with the column temperature set to 25° C. Linearity over a range of 1.0 to 200 mg/mL was observed. Dose formulations over this range were stable at room temperature for up to 13 days and were stable when stored frozen at −20° C. for up to 85 days.

[6] = In vivo epimerization by chiral methods
[7] = Stability in hepatocytes, dog; type: in vitro ADME

Compound: CC1(C)SC(Nc2ccccc2O)=N[C@@H]1C(=O)O [Compound 1, (R)-2-(2-hydroxyphenylamino)-5,5-dimethyl-4,5-dihydrothiazole-4-carboxylic acid mono-hydrochloride]
- inhibition of OATP1B1 (in words) (OATP1B1): does not inhibit
- effect on allodynia [1]: reverses allodynia
- reversal of allodynia (mechanical threshold relative to vehicle) ([2]; first experiment, 10, 30, 100 mg/kg PO daily, subsequent days): statistically-significant
- reversal of allodynia (mechanical threshold) ([2]; first experiment, Compound 1 10, 30, 100 mg/kg PO, gabapentin 100 mg/kg PO daily, Day 0 (gabapentin: 1 h post-dose on Day 0 and all time points thereafter)): non-significant reversal of allodynia
- effect on mechanical threshold compared with gabapentin ([2]; first experiment, subsequent days, gabapentin 100 mg/kg PO): comparable to gabapentin
- effect on allodynia ([2]; rat model of diabetic neuropathy, streptozotocin-induced (overview)): alleviates allodynia
- difference between dosing regimens ([2]; subsequent study, 100 mg/kg QD vs 50 mg/kg BID vs 33 mg/kg TID): no clear difference
- reversal of allodynia (mechanical threshold) ([2]; subsequent study, 7 days, Compound 1 100 mg/kg QD, 50 mg/kg BID, 33 mg/kg TID, gabapentin 100 mg/kg PO, duloxetine 30 mg/kg PO): reversed allodynia upon continued daily dosing reaching statistical significance from Day 1 and beyond
- stability of dose formulations for in vitro assays, time stable ([3]; room temperature): up to 1 day
- stability of dose formulations for in vitro assays, time stable ([3]; stored frozen at −20° C.): up to 45 days
- reversal of hypersensitivity [4]: complete reversal of hypersensitivity
- inhibition of BCRP (in words) (BCRP (ABCG2)): modestly inhibits
- stability of dose formulations, time stable ([5]; room temperature): up to 13 days
- stability of dose formulations, time stable ([5]; stored frozen at −20° C.): up to 85 days
- epimerization in vivo [6]: no epimerization
- stability in hepatocytes [7]: stable

— patent publication US20200246317A1, “METHODS OF TREATING DIABETIC NEUROPATHY WITH A THIAZOLINE ANTI-HYPERALGESIC AGENT” (CERSCI THERAPEUTICS, INC., priority 2019, published 2020)
